Measurements: patent publication US20160287741A1, “METASTABLE SILVER NANOPARTICLE COMPOSITES WITH COLOR INDICATING PROPERTIES” (SIENNA LABS, INC., priority 2013, published 2016)

Columns and labels:
[1] = Gelled deodorant stick blends, silica stabilized vs non-stabilized nanoplates vs silver salt: settling, peak resonance shift, hue; assay type: physicochemical; conditions: Table A blends
Protocol: Gelled sticks with silver nanoplates were prepared by blending water, dipropylene glycol and propylene glycol components, heating the resulting blends to 85° C., adding the poloxamine to the heated blend and mixing until clear, adding the sodium stearate to the heated blends and again mixing until clear, cooling the blends to 75° C. and adding the 2-amino-2-methylpropan-1-ol with agitation, cooling the blends to 71-73° C., and mixing in the remaining ingredients. Non-stabilized silver nanoplates and silica stabilized silver nanoplates were prepared according to the methods in example 1 and 2 respectively and added into separate blends. A silver salt was added to a separate blend. The blends were then allowed to cool to room temperature and gel.
A 100 microliter aliquot of from non-stabilized and silica stabilized silver blend solutions was added to a 96 well plate and allowed to cool to room temperature and gel.

[2] = Gelled deodorant stick blends, PVP nanoplates with or without borate vs silver salt: settling, peak resonance shift, hue; assay type: physicochemical; conditions: Table B blends
Protocol: Gelled sticks with silver nanoplates were prepared by blending water, dipropylene glycol and propylene glycol components, heating the resulting blends to 85° C., adding the poloxamine to the heated blend and mixing until clear, adding the sodium stearate to the heated blends and again mixing until clear, cooling the blends to 75° C. and adding the 2-amino-2-methylpropan-1-ol with agitation, cooling the blends to 71-73° C., and then mixing in the remaining ingredients. PVP and borate stabilized silver nanoplates were prepared according to the methods in example 1 with the addition of PVP and borate into the mixture after synthesis. In one blend was added borate prior to adding silver nanoplates, in another blend borate was not added. A silver salt was added to a separate blend with no borate. The blends were then allowed to cool to room temperature and gel.
A 100 microliter aliquot from non-stabilized and silica stabilized silver blend solutions was added to a 96 well plate and allowed to cool to room temperature and gel.

[3] = EPA Reference Dose for Chronic Oral Exposure (RfD) for silver and intravenous conversion; parameters: species or system human population
Text: We estimate less than half of the silver has diffused from the silicone into the IV fluid over 7 days based on the silver nanoplate plasmonic peak wavelength, which corresponds directly with the diameter decrease in the etched silver nanoplates. Even if all of the silver had diffused from the silicone into the IV fluid during 7 days, this would correspond to a daily body absorption of 1.6 micrograms per day. In the United States, the EPA has set a Reference Dose for Chronic Oral Exposure (RfD) of 5 micgrams per Kg per day for silver. RfD is the daily exposure to the human population (including sensitive subgroups) that is likely to be without an appreciable risk of deleterious effects during a lifetime. Oral dose is estimated based on a conversion of 4% absorption of dietary silver into the body. Thus, an intravenous RfD would be approximately 0.2 micrograms per day of silver. For a 70 Kg person, this corresponds to 14 micrograms per day.

[4] = EPA, United States; cited from earlier work

Row | Structure (SMILES) | settling in gelled deodorant blend [1] | settling in gelled deodorant blend [2] | intravenous RfD for a 70 Kg person ([3]; 70 Kg person) [micrograms per day] | intravenous RfD ([3]; conversion of 4% absorption of dietary silver) | Reference Dose for Chronic Oral Exposure (RfD) [4] [micgrams per Kg per day]
1 | [Cl][Ag] [silver chloride, Silver Chloride] | exhibited settling | exhibited settling | – | – | –
2 | [Ag] [silver] | – | – | 14 | approximately 0.2 micrograms per day | 5
